In publication PMC8778526, “N-Alkylmorpholines: Potent Dermal and Transdermal Skin Permeation Enhancers” (Pharmaceutics, 2021):
Converted amounts (≈) assume the structure as drawn. Like-named read-outs stand apart in the source and are kept apart here.

Key:
[1] = cited from earlier work
porcine skin [2] = test: ATR-FTIR of enhancer-treated skin; conditions: skin treated 24 h with 1% enhancer in 60% PG
Method: ATR-FTIR is a powerful method to investigate the interactions of enhancers with SC lipids and proteins. […] Pure distilled water or 60% aqueous PG were applied as controls. […] IR spectra of the skin surface were recorded by an IR spectrometer (Nicolet iZ10, Thermo Scientific, Waltham, MA, USA), equipped with a single reflection […] ZnSe crystal (PIKE Technologies, Madison, WI, USA) at constant clamping pressure. […] Collected spectra were normalised, to reduce potential variations in the overall intensity of the spectra. Selected regions (amide I, amide II and CH2 stretching vibration bands) were fitted in Origin Pro (OriginLab, Wellesley Hills, MA, USA). The position, height and area of these selected peaks were compared among the particular spectra and the variances between peak characteristics were statistically evaluated by GraphPad Prism® software (GraphPad Software, Inc., La Jolla, CA, USA).

porcine skin [3] = test: Skin electrical impedance measurements; conditions: 1% enhancer, 48 h; control ratio set to 1
Method: For monitoring the skin integrity and characterisation of the permeation enhancers’ effect, the electrical impedance of each skin was measured, using an LCR 4080 multimeter (Voltcraft, Hirschau, Germany), set in parallel-equivalent mode with an alternating current frequency of 120 Hz. The measurements were carried out according to established protocols. The measurements were performed in the Franz diffusion cells. After the initial hydration and equilibration, the donor compartments were filled with 500 μL of PBS. One wire of the multimeter was placed in PBS in the acceptor, the other in the donor phase and the electrical impedance was determined. The next measurement was taken after the 48 h permeation experiment. When the donor samples ([…]) were removed, they were replaced with 500 μL PBS and the electrical impedance was re-measured. The electrical impedance ratio (EIR) was calculated for each cell as (2) EIR=EI1/EI2 where EI1 [kΩ] is electrical impedance before and EI2 [kΩ] after the 48 h treatment by the donor formulation.

[4] = system: human keratinocytes HaCaT; test: Cytotoxicity, CCK-8 viability assay; assay type: cell-based; conditions: read-out: IC50, concentration causing 50% decrease in cell viability, 24 h incubation
Method: Cytotoxicity of the three best enhancers (Mo10, Mo12, Mo14) was evaluated on non-malignant spontaneously immortalised human keratinocytes HaCaT (Cell Lines Service, Eppelheim, Germany). The cell line was cultivated in Dulbecco’s Modified Eagle’s Medium (DMEM, Sigma Aldrich, St. Luis, MO, USA), supplemented with 10% Fetal Bovine Serum (Sigma Aldrich, St. Luis, MO, USA) in a Petri dish at 37 °C in a humidified atmosphere of 5% CO2. Cells were subcultured two times a week. For cytotoxicity experiments, 96-well plates were seeded with cells (at a density of 10,000 cells per well) in 100 μL of culture medium and incubated at 37 °C in a humidified atmosphere of 5% CO2 for 24 h.
The enhancers were dissolved in DMEM, left in an ultrasonic bath for 15 min and then kept at 37 °C overnight. On the next day, 10 μL of the particular enhancer solution was added to 100 μL of cell suspensions, to receive final enhancer concentrations in the range of 0.9–110 μM (concentrations determined according to our preliminary testing). The cells were incubated with tested compounds for 24 h. Then, the cell viability was determined, using the Cell Counting Kit-8 (CCK-8, Sigma Aldrich, St. Luis, MO, USA). The cells were incubated with 10 μL of the CCK-8 for 2 h. Thereafter, absorbance was measured at 450 nm, using the Infinite 200 PRO microplate reader (Tecan Austria GmbH, Austria). The mean optical density (absorbance) was used to calculate the percentage of cell viability as follows: percentage of cell viability=Atreatment−Ablank/Acontrol −Ablank×100 %, where A is the absorbance.

porcine skin [5] = test: In vitro permeation experiment, Franz-type diffusion cells; conditions: for ER, enhancement ratio: flux with/without 1% enhancer; for Jss, steady-state flux of the model drug: control, pure vehicle 60% PG without enhancer
porcine skin [6] = test: Transepidermal water loss (TEWL) measurements, reversibility of enhancer effect; conditions: for TEWL after the 2 h treatment: 1% enhancer in 60% PG applied 2 h; for TEWL after the 24 h treatment: 1% enhancer in 60% PG applied 24 h; for TEWL after 20 h: after 2 h treatment and enhancer removal; for TEWL within 24 h after the enhancers' removal: after 24 h treatment; for reversibility of the effect on the skin barrier: short-term 2 h application
Method: The reversibility of the enhancers’ effects was studied by evaluation of the difference in the water loss through the intact and enhancer-treated skin. […] The TEWL measurements were carried out according to established protocols. The skin samples were mounted into Franz diffusion cells, with the acceptor compartments filled with PBS pH 7.4 and placed in a water bath at 32 °C to hydrate and equilibrate. At first, the base TEWL values of untreated skin samples were measured. Each of the Franz diffusion cells was removed from the water bath, dried completely with compressed air and inserted into a holder. Then the TEWL probe was placed 1.0 cm above the skin surface. The measuring time was on average 80–100 s. […] The cells were then incubated at 32 °C. The donor samples were removed after 2 h or 24 h and the skin surface was washed with 0.5 mL of PBS, gently blotted dry and thoroughly dried with compressed air. After the enhancer was removed, TEWL was measured at predetermined intervals over 42 or 50 h.

[7] = cited from earlier work; remark: listed apart in the source
porcine skin [8] = test: Entrapment of model drug in the skin after the permeation experiment; assay type: in vitro ADME; conditions: control without enhancer
Method: At the end of the permeation experiment, the Franz diffusion cells were dismounted and the skin surface was thoroughly washed by distilled water and PBS. The skin area, which was exposed to the donor phase, was cut out, weighed and extracted by 5 mL of the respective mobile phase by shaking for 24 h at 32 °C on a laboratory shaker. The extracts were then filtered through 0.45 µm cellulose filters to eliminate skin residues and analysed by HPLC. Drug concentration in the skin, expressed as mg of model drugs per g of the skin tissue was calculated by dividing permeants’ amounts by the respective skin weights.

[9] = Effect of enhancers on drug solubility in the donor phase; conditions: 32 °C, aqueous with cosolvent or surfactant or cyclodextrin, thermodynamic from solid
[10] = In vitro permeation experiment, Franz-type diffusion cells; conditions: pig, pH 7.4
[11] = ref Drugbank, ALOGPS; cited from earlier work
[12] = donor phase: 60% PG in distilled water without enhancer

Molecule: CCCCCCCCCCCCOC(=O)CCCCCN(C)C [DDAK]
- IC50 ([1]; ref 29): 76 µM

Molecule: CCCCCCCCCCCCCCN1CC(CO)OC(OC)C1 (stereo not shown) [Mo14]
- vasCH2, position of asymmetric CH2 stretching vibration (porcine skin [2]): 2919.48 ± 0.42 cm⁻¹
- vsCH2, position of symmetric CH2 stretching vibration (porcine skin [2]): 2850.74 ± 0.14 cm⁻¹
- EIR, electrical impedance ratio (before/after treatment) (porcine skin [3]): 1.64 ± 0.14
- IC50 [4]: 41.5 ± 1.5 µM
- ER, enhancement ratio (porcine skin [5]; permeant DF): 2.58
- ER, enhancement ratio (porcine skin [5]; permeant IND): 9.10
- ER, enhancement ratio (porcine skin [5]; permeant TH): 8.67
- TEWL after the 2 h treatment (porcine skin [6]): 9.0 ± 0.4 g·m^−2·h^−1
- TEWL after the 24 h treatment (porcine skin [6]): 18.1 ± 0.8 g·m^−2·h^−1
- TEWL after 20 h (porcine skin [6]): 4.6 ± 0.7 g·m^−2·h^−1
- TEWL within 24 h after the enhancers' removal (porcine skin [6]): 4.7 ± 0.1 g·m^−2·h^−1
- reversibility of the effect on the skin barrier (porcine skin [6]): reversible

Molecule: CCCCCCCCCCCCN1CC(CO)OC(OC)C1 (stereo not shown) [Mo12]
- vasCH2, position of asymmetric CH2 stretching vibration (porcine skin [2]): 2921.14 ± 0.61 cm⁻¹
- vsCH2, position of symmetric CH2 stretching vibration (porcine skin [2]): 2851.56 ± 0.23 * cm^−1
- EIR, electrical impedance ratio (before/after treatment) (porcine skin [3]): 1.60 ± 0.13
- IC50 [4]: 41 ± 0.8 µM
- ER, enhancement ratio (porcine skin [5]; permeant DF): 1.81
- ER, enhancement ratio (porcine skin [5]; permeant IND): 10.01
- ER, enhancement ratio (porcine skin [5]; permeant TH): 14.53
- TEWL after the 2 h treatment (porcine skin [6]): 8.2 ± 0.3 g·m^−2·h^−1
- TEWL after the 24 h treatment (porcine skin [6]): 18.5 ± 1.2 g·m^−2·h^−1
- TEWL after 20 h (porcine skin [6]): 3.2 ± 0.3 g·m^−2·h^−1
- TEWL within 24 h after the enhancers' removal (porcine skin [6]): 9.5 ± 0.1 g·m^−2·h^−1
- reversibility of the effect on the skin barrier (porcine skin [6]): reversible

Molecule: dodecyl amino glucoside
- IC50 ([1]; ref 34): 24 µM

Molecule: CCCCCCCCCCN1CC(CO)OC(OC)C1 (stereo not shown) [Mo10]
- vasCH2, position of asymmetric CH2 stretching vibration (porcine skin [2]): 2921.91 ± 0.40 cm⁻¹
- vsCH2, position of symmetric CH2 stretching vibration (porcine skin [2]): 2852.58 ± 0.71 * cm^−1
- EIR, electrical impedance ratio (before/after treatment) (porcine skin [3]): 1.66 ± 0.19
- IC50 [4]: 94 ± 1.5 µM
- ER, enhancement ratio (porcine skin [5]; permeant DF): 1.43
- ER, enhancement ratio (porcine skin [5]; permeant IND): 7.80
- ER, enhancement ratio (porcine skin [5]; permeant TH): 9.87
- TEWL after the 2 h treatment (porcine skin [6]): 11.7 ± 0.8 g·m^−2·h^−1
- TEWL after the 24 h treatment (porcine skin [6]): 15.6 ± 2.2 g·m^−2·h^−1
- TEWL after 20 h (porcine skin [6]): 4.8 ± 0.1 g·m^−2·h^−1
- TEWL within 24 h after the enhancers' removal (porcine skin [6]): 4.3 ± 0.7 g·m^−2·h^−1
- reversibility of the effect on the skin barrier (porcine skin [6]): reversible

Molecule: CCCCCCCCCCCCCCCCCCN1CC(CO)OC(OC)C1 (stereo not shown) [Mo18]
- ER, enhancement ratio (porcine skin [5]; permeant DF): 1.14
- ER, enhancement ratio (porcine skin [5]; permeant IND): 1.95
- ER, enhancement ratio (porcine skin [5]; permeant TH): 3.06

Molecule: O=C(O)Cc1ccccc1Nc1c(Cl)cccc1Cl [DF, diclofenac sodium]
- solubility in PBS ([7]; ref 27): 5150 µg/mL
- amount of the model drug in the skin (porcine skin [8]): 380.10 ± 50.52 μg·gskin^−1
- solubility at 48 h [9, 12]: 57800 ± 2550 µg/mL
- Papp at 48 h [10]: 0.0275 ×10⁻⁶ cm/s
- Jss, steady-state flux of the model drug (porcine skin [5]): 5.74 ± 1.04 µg·cm^−2·h^−1

Molecule: CCCCCCCCC=CCCCCCCCCN1CC(CO)OC(OC)C1 (stereo not shown) [Mo18/1]
- vasCH2, position of asymmetric CH2 stretching vibration (porcine skin [2]): 2920.35 ± 0.36 cm⁻¹
- vsCH2, position of symmetric CH2 stretching vibration (porcine skin [2]): 2850.76 ± 0.15 cm⁻¹
- ER, enhancement ratio (porcine skin [5]; permeant DF): 1.94
- ER, enhancement ratio (porcine skin [5]; permeant IND): 3.94
- ER, enhancement ratio (porcine skin [5]; permeant TH): 5.01

Molecule: CCCCCCCCCCCCOC(=O)CCCCCN.CCCCCCCCCCCCOC(=O)CCCCCNC(=O)O [Transkarbam 12]
- IC50 ([1]; ref 29): 21 µM

Molecule: Cn1c(=O)c2[nH]cnc2n(C)c1=O [TH, theophylline]
- solubility in PBS ([7]; ref 25): 7650 µg/mL (≈ 42.5 mM)
- solubility at 48 h [9]: 20000 ± 620 µg/mL
- logP [11]: −0.02

Molecule: COc1ccc2c(c1)c(CC(=O)O)c(C)n2C(=O)c1ccc(Cl)cc1 [IND, indomethacin]
- solubility in PBS ([7]; ref 26): 650 µg/mL (≈ 1.82 mM)
- amount of the model drug in the skin (porcine skin [8]): 32.43 ± 6.98 μg·gskin^−1
- solubility at 48 h [9, 12]: 950 ± 510 µg/mL
- Papp at 48 h [10]: 0.104 ×10⁻⁶ cm/s
- Jss, steady-state flux of the model drug (porcine skin [5]): 0.51 ± 0.09 µg·cm^−2·h^−1

Molecule: CCCCCCCCCCCCN1CCCCCC1=O [Azone, N-dodecylazacykloheptan-2-on, reference compound]
- IC50 ([1]; ref 57): 49 µM
- IC50 ([1]; ref 58): 117 µM
- vasCH2, position of asymmetric CH2 stretching vibration (porcine skin [2]): 2921.84 ± 0.34 cm⁻¹
- vsCH2, position of symmetric CH2 stretching vibration (porcine skin [2]): 2851.16 ± 0.21 * cm^−1

Molecule: CCCCN1CC(CO)OC(OC)C1 (stereo not shown) [Mo4]
- ER, enhancement ratio (porcine skin [5]; permeant DF): 1.04
- ER, enhancement ratio (porcine skin [5]; permeant IND): 5.78
- ER, enhancement ratio (porcine skin [5]; permeant TH): 1.38

Molecule: CCCCCCCCN1CC(CO)OC(OC)C1 (stereo not shown) [Mo8]
- ER, enhancement ratio (porcine skin [5]; permeant DF): 1.17
- ER, enhancement ratio (porcine skin [5]; permeant IND): 6.28
- ER, enhancement ratio (porcine skin [5]; permeant TH): 4.63
